Experimental findings from patent US4965280A, “Antifungal carbinols” (E. I. Du Pont de Nemours and Company, priority 1989, dated 1990) are described below.

Each structure is given as a SMILES string. Values after ≈ are worked out from the molar mass of the structure shown. Like-named read-outs stand apart in the source and are kept apart here.

Assay [1] concerns Candida albicans ATCC 11651. The experiment in a line: In vivo systemic Candida infection in mice, primary assay. Also noted: species or system Candida albicans; CF-1 female mice. To be noted: Candida albicans, 150 mg/kg per day, read-out: % Survival. From the text: The […] activity of test compounds is based on the percent (%) survival of infected animals receiving test or standard agent compared to that in an infected untreated group (Table 6). The in vivo assays are chronic systemic infections lethal to mice within 7 days post infection, [J. Barnes, et al. Lab Investigation, 49 460-467 (1963), and T. Rogers and E. Balish, Infection and Immunity, 14 33-38 (1976)].
Candida albicans ATCC 11651, from a frozen stock culture (10^9 organisms/ml) maintained at -70°, is diluted in saline to 1×10^7 organisms/ml and 0.2 ml inoculated intravenously (caudal vein) into 20.0 gm CF-1 female mice (Charles River).
Test compounds are routinely solubilized in 0.25% (w/v) methylcellulose (Methocel®) but for those compounds difficult to solubilize 10% (w/v) Emulophor® (EL620 GAF Corp.) is used. The standard antifungal agents, amphotericin B (Fungizone®) in water and ketoconazole (Nizoral®) in Methocel®, are administered at 1.0 mg/kg/day and 150 mg/kg/day, respectively.
In a primary assay, mice (10 per group) are infected with C. albicans, and receive test compounds at 50 or 150 mg/kg/day via the subcutaneous route. Animals are dosed with the test compound at 1 and 6 hour post-infection and then once daily for the next three days. Survival of mice in each group is recorded for 21 days.
Compounds which protect ≥70% of the infected animals for 14 days at a dose 150 mg/kg/day or less are viewed as active.

The next assay has as its system Venturia inaequalis. The experiment in a line: Example A apple scab. The assay is classed as in vivo. To be noted: 20 PPM, read-out: disease control rating, Ex. A. How it is done: The test compounds were dissolved in acetone in an amount equal to 6% of the final volume and then suspended at a concentration of 100 or 20 ppm in purified water containing 250 ppm of the surfactant TREM 014 (polyhydric alcohol esters). This suspension was sprayed to the point of run-off on apple seedings.

In assay [2] the test system is Cercosporidium personatum. The experiment in a line: Example B Peanut Late Leafspot. The format is in vivo. To be noted: Nothopassalora personata; 20 PPM; read-out: disease control rating, Ex. B. How it is done: The test compounds were dissolved in acetone in an amount equal to 6% of the final volume and then suspended at a concentration of 100 or 20 ppm in purified water containing 250 ppm of the surfactant TREM 014 (polyhydric alcohol esters). This suspension was sprayed to the point of run-off on peanut seedlings.

Another assay relates to Botrytis cinerea. Briefly: Example C bean grey mold. The assay is classed as in vivo. To be noted: Botrytis cinerea, 24 h, read-out: disease control rating, Ex. C. The protocol:
The test compounds were dissolved in acetone in an amount equal to 6% of the final volume and then suspended at a concentration of 100 or 20 ppm in purified water containing 250 ppm of the surfactant TREM 014 (polyhydric alcohol esters). This suspension was sprayed to the point of run-off on broad bean seedlings.

In assay [3] the test system is Erysiphe graminis f. sp. tritici. Briefly: Example D wheat powdery mildew. The format is in vivo. To be noted: Blumeria graminis, 144 h; 20 PPM; read-out: disease control rating, Ex. D. How it is done: The test compounds were dissolved in acetone in an amount equal to 6% of the final volume and then suspended at a concentration of 100 or 20 ppm in purified water containing 250 ppm of the surfactant TREM 014 (polyhydric alcohol esters). This suspension was sprayed to the point of run-off on wheat seedlings.

In the next assay the test system is Pyricularia oryzae. Briefly: whole plant or invertebrate. To be noted: Pyricularia oryzae, 120 h; for pest or weed control at 20 ppm: read-out: disease control rating, Ex. E, 20 PPM; for pest or weed control at 100 ppm: read-out: disease control rating, Ex. E, 100 PPM. The format is in vivo.
The subject of the next assay is Rhizoctonia solani. The experiment in a line: Example F rice sheath blight. The format is in vivo. To be noted: Rhizoctonia solani, 144 h, read-out: disease control rating, Ex. F. The protocol:
The test compounds were dissolved in acetone in an amount equal to 6% of the final volume and then suspended at a concentration of 100 or 20 ppm in purified water containing 250 ppm of the surfactant TREM 014 (polyhydric alcohol esters). This suspension was sprayed to the point of run-off on rice seedlings.

Another assay deals with Puccinia recondita. The experiment in a line: Example G wheat leaf rust. To be noted: 20 PPM, read-out: disease control rating, Ex. G. The format is in vivo.
The next assay deals with Phytophthora infestans. The experiment in a line: whole plant or invertebrate. The assay is classed as in vivo. To be noted: Phytophthora infestans, in Solanum lycopersicum, read-out: disease control rating, Ex. H, 100 PPM.
The subject of the next assay is Plasmorpara viticola. Briefly: Example I grape downy mildew. To be noted: read-out: disease control rating, Ex. I. The format is in vivo. The protocol: The test compounds were dissolved in acetone in an amount equal to 6% of the final volume and then suspended at a concentration of 100 or 20 ppm in purified water containing 250 ppm of the surfactant TREM 014 (polyhydric alcohol esters). This suspension was sprayed to the point of run-off on grape seedlings.

Assay [4] has as its system Candida albicans ATCC 11651. The experiment in a line: In vitro antifungal MIC, microtiter broth dilution. To be noted: Candida albicans, ATCC11651, 24 h, read-out: MIC values, C. albicans, 30°, 24 hours. (In general: Dilution methods test growth across graded concentrations, often in twofold steps.)
Description: In vitro activity (Table 5) is expressed in terms of the minimal inhibitory concentration (MIC) of the test compound which inhibits the growth of yeasts and fungi.
The target organisms, Candida albicans ATCC 11651 and Aspergillus fumigatus ATCC 28214 are standardized, [V. Bezjak, J. Clinical Micro., 21 509-512 (1984)], to a concentration of 10^7 organisms/ml and maintained at -70° until use. Test compounds are solubilized in dimethyl sulfoxide (DMSO) and diluted in Eagle's Minimum Essential Medium (EMEM) broth to achieve a final concentration of 200 μg/ml. Stock solutions of standard antifungal agents are stored at -70° and diluted in EMEM as required.
The in vitro assay utilizes a microtiter broth dilution technique [L. Polonelli and G. Morace, Mycopathologia, 86, 21-28 (1984)] and C. […] The appropriate wells are inoculated with the required organism (C. albicans at 1×10^4 organisms/ml and A. fumigatus at 5×10^5 organisms/ml) and the assay incubated at 30° for 24 hours.
The subject of assay [5] is Aspergillus fumigatus ATCC 28214. Briefly: In vitro antifungal MIC, microtiter broth dilution. To be noted: Aspergillus fumigatus, ATCC28214, 24 h, read-out: MIC values, A. fumigatus, 30°, 24 hours.

Consider `C=C(c1ccc(F)cc1)C(O)(CC)Cn1cncn1` (centres unmarked) [Example 668], for which the responders at 150 mg/kg was determined as 70% in assay [1] (ATCC11651, 168 h, day 7); 10% in assay [1] (ATCC11651, 336 h, day 14); 0% in [1] (ATCC11651, 504 h, day 21). Also, the pest or weed control at 20 ppm in the assay on Venturia inaequalis turned out to be 65%; in assay [2] it was 17%; in the assay with Botrytis cinerea, 31%; in assay [3], 31%; with Pyricularia oryzae, 1%; with Rhizoctonia solani, 0%. For the same compound, the pest or weed control at 20 ppm in the assay with Puccinia recondita came out at 100%. Moreover, the pest or weed control at 100 ppm in the assay with Botrytis cinerea was 76%; in the assay on Pyricularia oryzae, 1%; with Rhizoctonia solani, 0%; in the assay on Phytophthora infestans, 22%; with Plasmorpara viticola, 31%. Further, the figures for the minimal inhibitory concentration (MIC) in assay [4] and in assay [5] were 0.4 µg/mL (≈ 1.53 µM) and 50 µg/mL (≈ 191 µM), respectively.
Turning to `C=C(c1cccc(Cl)c1)C(O)(Cn1cncn1)c1ccccc1F` (centres unmarked) [Example 47], the responders at 150 mg/kg in [1] (ATCC11651, 168 h, day 7) came out at 90%; in [1] (ATCC11651, 336 h, day 14), 80%; in assay [1] (ATCC11651, 504 h, day 21), 30%. Further, the pest or weed control at 20 ppm in the assay on Venturia inaequalis worked out at 93%; in assay [2], 100%; with Botrytis cinerea it was 26%; in [3], 98%; in the assay with Pyricularia oryzae it was 15%; in the assay on Rhizoctonia solani, 0%. The pest or weed control at 20 ppm in the assay with Puccinia recondita was determined as 100%. Further, the pest or weed control at 100 ppm in the assay on Botrytis cinerea amounted to 89%; with Pyricularia oryzae, 31%; in the assay on Rhizoctonia solani, 47%; in the assay with Phytophthora infestans it was 0%; with Plasmorpara viticola it was 25%. Moreover, the MIC (usually the lowest concentration found to suppress growth) was determined as 0.03 µg/mL (≈ 0.0873 µM) in [4] and 1.6 µg/mL (≈ 4.65 µM) in assay [5].
Turning to `C=C(c1ccccc1Cl)C(O)(Cn1cncn1)c1ccc(Cl)c(Cl)c1` (centres unmarked) [Example 627], the responders at 150 mg/kg turned out to be 0% in assay [1] (ATCC11651, 168 h, day 7); 0% in assay [1] (ATCC11651, 336 h, day 14); 0% in assay [1] (ATCC11651, 504 h, day 21). The pest or weed control at 20 ppm with Venturia inaequalis was determined as 31%; in assay [2], 70%; in the assay with Botrytis cinerea it was 19%; in assay [3], 81%; with Pyricularia oryzae, 0%; in the assay with Rhizoctonia solani, 0%. Further, in the assay on Puccinia recondita, the pest or weed control at 20 ppm amounted to 99%. For the same compound, the pest or weed control at 100 ppm with Botrytis cinerea turned out to be 38%; in the assay with Pyricularia oryzae, 0%; in the assay with Rhizoctonia solani, 14%; in the assay with Phytophthora infestans, 0%; in the assay with Plasmorpara viticola it was 61%. The minimal inhibitory concentration (MIC) in assay [4] was determined as 0.03 µg/mL (≈ 0.076 µM); in assay [5] it was 25 µg/mL (≈ 63.3 µM).
On to `C=C(c1ccc(SC)cc1)C(O)(Cn1cncn1)c1ccc(F)cc1` (centres unmarked) [Example 163], for which the responders at 150 mg/kg stood at 90% in [1] (ATCC11651, 168 h, day 7); 60% in assay [1] (ATCC11651, 336 h, day 14); 40% in assay [1] (ATCC11651, 504 h, day 21). Moreover, the pest or weed control at 20 ppm with Venturia inaequalis is 0%; in assay [2] it was 81%; in the assay on Botrytis cinerea, 58%; in assay [3], 23%; in the assay on Pyricularia oryzae, 5%; in the assay on Rhizoctonia solani, 0%. The pest or weed control at 20 ppm in the assay on Puccinia recondita stood at 99%. Besides, the pest or weed control at 100 ppm worked out at 95% with Botrytis cinerea; 5% in the assay on Pyricularia oryzae; 0% in the assay with Rhizoctonia solani; 0% with Phytophthora infestans; 0% in the assay with Plasmorpara viticola. In addition, the minimal inhibitory concentration (MIC) turned out to be 0.03 µg/mL (≈ 0.0844 µM) in assay [4] and 12.5 µg/mL (≈ 35.2 µM) in assay [5].
Take `C=C(c1ccccc1)C(O)(Cn1cncn1)c1ccccc1Cl` (centres unmarked) [Example 596]: the responders at 150 mg/kg is 70% in assay [1] (ATCC11651, 168 h, day 7); 60% in assay [1] (ATCC11651, 336 h, day 14); 40% in [1] (ATCC11651, 504 h, day 21). Moreover, the pest or weed control at 20 ppm in the assay with Venturia inaequalis amounted to 91%; in assay [2], 95%; in the assay on Botrytis cinerea it was 35%; in [3], 94%; in the assay with Pyricularia oryzae it was 0%; in the assay on Rhizoctonia solani, 0%. In the assay on Puccinia recondita, the pest or weed control at 20 ppm turned out to be 100%. The pest or weed control at 100 ppm came out at 89% in the assay on Botrytis cinerea; 0% with Pyricularia oryzae; 0% in the assay with Rhizoctonia solani; 0% in the assay on Phytophthora infestans; 25% in the assay with Plasmorpara viticola. Besides, the results for the MIC in [4] and in assay [5] were 0.05 µg/mL (≈ 0.153 µM) and 0.4 µg/mL (≈ 1.23 µM), respectively.
With `C=C(c1ccc(SC)cc1)C(O)(Cn1cncn1)c1ccc(F)cc1F` (centres unmarked) [Example 164], the responders at 150 mg/kg in assay [1] (ATCC11651, 168 h, day 7) turned out to be 100%; in [1] (ATCC11651, 336 h, day 14), 80%; in assay [1] (ATCC11651, 504 h, day 21) it was 70%. In addition, the pest or weed control at 20 ppm in the assay with Venturia inaequalis was 82%; in assay [2], 100%; in the assay on Botrytis cinerea, 57%; in assay [3], 88%; with Pyricularia oryzae it was 5%; in the assay on Rhizoctonia solani, 0%. Further, the pest or weed control at 20 ppm in the assay on Puccinia recondita came to 100%. For the same compound, the pest or weed control at 100 ppm in the assay with Botrytis cinerea was 84%; in the assay on Pyricularia oryzae, 15%; in the assay with Rhizoctonia solani, 0%; in the assay with Phytophthora infestans it was 8%; in the assay with Plasmorpara viticola, 0%. The results for the MIC in assay [4] and in [5] were 0.03 µg/mL (≈ 0.0803 µM) and 1.6 µg/mL (≈ 4.28 µM), respectively.
Regarding `C=C(c1ccc(F)cc1)C(Cn1cncn1)(OC(C)=O)c1ccc(F)cc1` (centres unmarked) [Example 361], the responders at 150 mg/kg in [1] (ATCC11651, 168 h, day 7) is 100%; in [1] (ATCC11651, 336 h, day 14), 100%; in assay [1] (ATCC11651, 504 h, day 21) it was 90%. Moreover, the pest or weed control at 20 ppm came out at 43% in the assay on Venturia inaequalis; 26% in assay [2]; 29% with Botrytis cinerea; 33% in assay [3]; 1% in the assay on Pyricularia oryzae; 0% in the assay on Rhizoctonia solani. The pest or weed control at 20 ppm in the assay on Puccinia recondita amounted to 100%. Further, the pest or weed control at 100 ppm in the assay with Botrytis cinerea was 46%; with Pyricularia oryzae, 1%; in the assay with Rhizoctonia solani, 0%; in the assay with Phytophthora infestans, 27%; in the assay on Plasmorpara viticola it was 9%. Also, the minimal inhibitory concentration (MIC) in [4] stood at 0.8 µg/mL (≈ 2.17 µM); in assay [5] it was 25 µg/mL (≈ 67.7 µM).
